According to article PMC9611657, “Bruton’s Tyrosine Kinase Inhibitor Zanubrutinib Effectively Modulates Cancer Resistance by Inhibiting Anthracycline Metabolism and Efflux” (Pharmaceutics, 2022):

Legend:
[1] = biological target: T1, aldo-keto reductase 1C3 (AKR1C3) (Homo sapiens, UniProt P42330); experiment: reduction to daunorubicinol by recombinant enzyme (DAUN […]), UHPLC, Michaelis-Menten kinetics; assay type: biochemical
T1 construct: human recombinant AKR1C3 from E. coli BL21(DE3), HisTrap purified
T1 sequence (P42330 1-323): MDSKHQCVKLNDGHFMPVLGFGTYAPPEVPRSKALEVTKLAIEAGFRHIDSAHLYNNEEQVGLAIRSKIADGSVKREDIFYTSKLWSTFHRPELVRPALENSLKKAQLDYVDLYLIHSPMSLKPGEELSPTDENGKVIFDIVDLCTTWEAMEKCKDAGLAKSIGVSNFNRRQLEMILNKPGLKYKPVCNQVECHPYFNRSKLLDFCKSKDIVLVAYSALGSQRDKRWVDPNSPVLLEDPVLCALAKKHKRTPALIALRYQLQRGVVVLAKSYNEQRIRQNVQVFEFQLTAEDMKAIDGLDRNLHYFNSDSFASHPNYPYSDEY

[2] = biological target: T1, aldo-keto reductase 1C3 (AKR1C3); experiment: inhibition of daunorubicin reduction by recombinant enzyme, UHPLC of DAUN-OL, Michaelis-Menten/Lineweaver-Burk; assay type: biochemical

Ki [2] [µM] | Structure (SMILES) | reduction to daunorubicinol by recombinant enzyme (DAUN 200-2000 μM), UHPLC, Mic [1]
 | COc1cccc2c1C(=O)c1c(O)c3c(c(O)c1C2=O)C[C@@](O)(C(C)=O)C[C@@H]3O[C@H]1C[C@H](N)[C@H](O)[C@H](C)O1 [DAUN, Daunorubicin] | AKR1C3 was incubated with the substrate DAUN, with or without ZAN.
2.9 | C=CC(=O)N1CCC([C@@H]2CCNc3c(C(N)=O)c(-c4ccc(Oc5ccccc5)cc4)nn32)CC1 [ZAN, Zanubrutinib] | 
